Patent US11439657B2, “Cancer stem cell growth inhibitor using miRNA” (CancerStem Tech Inc., priority 2017, dated 2022)

Columns and labels:
[1] = system: solid tumor from the cancer stem cell population (ZsGreen+); assay: Mouse subcutaneous solid tumor model test; format: in vivo, BALB/cA nude mice
Protocol: In 100 ml of distilled water, 0.37 g of NaHCO3, 90 μl of NaH2PO4.2H2O (1M) and 180 μl of CaCl2 (1 M) were added in this order and dissolved, and the pH was adjusted to 7.5 with 1N HCl. This was filtered through 0.2 μm diameter filter. Per 1 ml of the resultant buffer, 2 μg of miRNA and 4 μl of CaCl2 (1 M) were mixed and incubated in a water bath at 37° C. for 30 minutes. Then, spin down was performed at 15000 rpm×5 minutes. The resultant pellet was dispersed in physiological saline (containing 0.5 wt % albumin). Accordingly, a dispersion of composite particles containing the miRNA in carbonate apatite particles was obtained. The resultant dispersion was subjected to ultrasonic vibration treatment for 10 minutes just prior to testing. Note that the ultrasonic vibration treatment was performed for 10 minutes using a water bath with an ultrasonic vibration function, in which the dispersion contained in a plastic container was floated on water set to 20° C., under conditions of high frequency output of 55 W and oscillation frequency of 38 kHz. The preparation obtained in this way was immediately used for the tests described below.
Note that it is confirmed in the measurement using a scanning probe microscope that the dispersion of ultrasonic vibration treatment includes composite particles composed of carbonate apatite nanoparticles containing the miRNA having an average particle diameter of 50 nm or less. It is also confirmed that the resultant composite particles contain about 20 μg of the miRNA per 1 mg of carbonate apatite.
The cancer stem cell population (ZsGreen+) obtained in Test Example 1 was subcutaneously injected at 5×10^5 cells to the left and right backs of 6 to 8 weeks age BALB/cA nude mice (manufactured by CLEA Japan, Inc.) to produce solid tumor model mice. When the tumor reached about 20 mm^3 in size, the mice were randomly divided into an hsa-miR-136-5p administration group (hsa-miR-136-5p), an untreated group, and a negative control group (control miRNA). In the hsa-miR-136-5p administration group, the day at which the tumor reached about 20 mm^3 in size was 0th day. On the 0th, 3rd, 5th, 7th, 10th, 12th, 14th, 17th and 19th days, carbonate apatite nanoparticles containing the hsa-miR-136-5p were intravenously injected into the tail vein at 40 μg/dose in terms of the amount of hsa-miR-136-5p. In the negative control group, carbonate apatite nanoparticles containing a control miRNA (SEQ ID NO: 9) were intravenously injected into the tail vein at the same schedule and dose as those for the miRNA136-5p administration group. In the untreated group, no drug was administered. During the test period, the tumor volume on the back of the mouse (longer diameter×shorter diameter×shorter diameter×1/2) was measured over time, and on the 24th day, the tumor was excised from the mice and observed for size, and its weight was measured.
A mouse subcutaneous solid tumor model test was conducted in the same manner as in Test Example 2 except that hsa-miR-3065-3p was used in place of hsa-miR-136-5p.
A mouse subcutaneous solid tumor model test was conducted in the same manner as in Test Example 2 except that hsa-miR-181-5p was used in place of hsa-miR-136-5p.

[2] = system: human large bowel cancer cells (DLD1 line and HT29 line); assay: Colony formation assay; format: cell-based; conditions: DLD1 and HT29 lines; 50 nM; culture for 10 days; versus control miRNA; FIG. 14
Protocol: A cell suspension prepared by suspending human large bowel cancer cells (DLD1 line and HT29 line) in RPMI medium (containing 10% by volume FBS) was seeded in each well of a 6-well plate at 3×10^5 cells/well, followed by culture for 2 days. Then, the medium was changed to RPMI medium (containing no FBS), and a mixture of lipofectamin RNAiMAX Regent (final concentration in each well: 0.03 μL/ml) and hsa-miR-3065-3p (final concentration in each well: 50 nM) was added for transfection, followed by culture for 8 hours. Then, cells after transfection were recovered and suspended in RPMI medium (containing 10% by volume FBS), and were seeded in each well of a 6-well plate at 500 cells/well, followed by culture for 10 days. Thereafter, the culture supernatant was removed, and cells were fixed with methanol and then stained with crystal violet to count the formed colonies. In addition, tests were also performed under the same condition on a case where a control miRNA (SEQ ID NO: 9) was used (control miRNA, negative control) in place of hsa-miR-3065-3p.

[3] = system: human large bowel cancer cells (HT29 line); assay: Drug sensitivity in combination with oxaliplatin (cell viability); format: cell-based; conditions: miRNA 50 nM, oxaliplatin 0-128 μM for 72 hours, compared to only oxaliplatin and to control plus oxaliplatin, FIG. 16
Protocol: A cell suspension prepared by suspending human large bowel cancer cells (HT29 line) in RPMI medium was seeded in each well of a 6-well plate at 3×10^5 cells/well, and a mixture of lipofectamin RNAiMAX Regent (final concentration in well: 0.03 μL/well) and hsa-miR-3065-3p (final concentration in well: 50 nM) was further added, followed by culture for 1 day. Then, cells were recovered and suspended in RPMI medium, and were seeded in each well of a 96-well plate at 3×10^3 cells/well, followed by culture for 2 days. Thereafter, oxaliplatin was added to each well at 0, 2, 4, 8, 16, 32, 64 or 128 μM, followed by additional culture for 72 hours. After culture, living cells in each well were counted by GloMax-Multi Detection System (Promega Corporation). When the number of living cells under a condition where oxaliplatin was not added was 100%, the ratio of the number of living cells under each condition (cell viability, %) was determined. In addition, tests were also performed under the same condition on a case where a control miRNA (SEQ ID NO: 9) was used (control miRNA, negative control) in place of hsa-miR-3065-3p, and on a case where no miRNA was added.

Substance	tumor excised on the 24th day (size and weight) as compared to the untreated group and the negative control group ([1]; 24th day, carbonate apatite nanoparticles, 40 μg/dose i.v., FIGS. 5b and 5c)	tumor volume as compared to the untreated group and the negative control group ([1]; after the 7th day, carbonate apatite nanoparticles, 40 μg/dose i.v., FIG. 5a)	antitumor effect as compared to the untreated group and the negative control group (control miRNA) ([1]; carbonate apatite nanoparticles containing the miRNA, 40 μg/dose, tail vein i.v., days 0-19, tumor excised on the 24th day)	colony forming ability of human large bowel cancer cells [2]	tumor volume as compared to the untreated group and the negative control group ([1]; from the 17th day, carbonate apatite nanoparticles, 40 μg/dose i.v., FIG. 6)	number of living cells (cell viability) on treatment with both hsa-miR-3065-3p and oxaliplatin [3]
hsa-miR-136-5p: human-derived miR-136-5p; base sequence set forth in SEQ ID NO: 1 as mature miRNA (ACUCCAUUUGUUUUGAUGAUGGA; listed as RNA, chemistry not given here; listed as Homo sapiens)	significantly smaller	significantly smaller tumor volume	remarkably higher antitumor effect			
hsa-miR-3065-3p: human-derived miR-3065-3p; base sequence set forth in SEQ ID NO: 2 as mature miRNA (UCAGCACCAGGAUAUUGUUGGAG; listed as RNA, chemistry not given here; listed as Homo sapiens)				able to inhibit the colony forming ability	significantly reduced	significantly reduce the number of living cells
